Measurements as given in ChEMBL document CHEMBL4665681, “On the Promise of Photopharmacology Using Photoswitches: A Medicinal Chemist's Perspective” (J Med Chem, 2020).
Values after ≈ are worked out from the molar mass of the structure shown. Each block holds one compound with its values, some of them ahead of it.

What was measured:
[1] = target: Histone deacetylase 2 (Homo sapiens, UniProt Q92769); test: Light-dependent inhibition of recombinant full length human HDAC2 expressed in baculovirus infected Sf9 insect cells preincubated for 1 hr in presence of LED light irradiation followed by substrate addition and measured for 30 mins by fluorescence method
Sequence of Histone deacetylase 2 (Q92769 whole entry): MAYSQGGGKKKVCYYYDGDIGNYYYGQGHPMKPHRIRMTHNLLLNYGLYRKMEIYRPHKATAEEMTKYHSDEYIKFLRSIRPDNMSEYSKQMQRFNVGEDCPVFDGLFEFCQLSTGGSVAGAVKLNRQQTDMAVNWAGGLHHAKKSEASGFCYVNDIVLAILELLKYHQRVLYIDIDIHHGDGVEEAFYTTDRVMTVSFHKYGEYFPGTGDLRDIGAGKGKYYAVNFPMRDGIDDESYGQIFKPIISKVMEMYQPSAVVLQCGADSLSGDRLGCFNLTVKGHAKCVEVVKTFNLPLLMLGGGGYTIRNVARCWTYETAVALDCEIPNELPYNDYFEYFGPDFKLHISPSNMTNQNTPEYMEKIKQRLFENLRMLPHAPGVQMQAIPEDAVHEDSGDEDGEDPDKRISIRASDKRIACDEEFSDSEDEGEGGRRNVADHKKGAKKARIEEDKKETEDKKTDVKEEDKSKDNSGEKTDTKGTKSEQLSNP

[2] = Thermal relaxation half life in PBS buffer; assay type: physicochemical
[3] = test system: Escherichia coli; test: Antibacterial activity against Quinolone-sensitive Escherichia coli CS1562 (tolC6:tn10) using irradiated compound measured every 10 min for 12 hrs by broth dilution method; assay type: functional; settings: light or radiation study
[4] = Half life of compound in water at 21x10^-6 M; assay type: physicochemical; settings: dose 21 10^-6M
[5] = test system: Escherichia coli; test: Antibacterial activity against Quinolone-sensitive Escherichia coli CS1562 (tolC6:tn10) measured every 10 min for 12 hrs by broth dilution method; assay type: functional
[6] = Half life in Dutch Belted rabbit retina at 30 uM, IVT measured after 24 to 336 hrs by LC-MS/MS analysis; assay type: ADME, tissue-based, Oryctolagus cuniculus; settings: topical or ocular, time 24-336 hrs

IC50 [1]: < 100 nM
t1/2 [2]: 56 microsec
Compound: CN(C)c1ccc(/N=N\c2ccc(C(=O)Nc3cc(-c4cccs4)ccc3O)cc2)cc1

MIC [3]: 16 µg/mL (≈ 43.8 µM)
half-life at 21 µM [4]: 0.0833 days
MIC [5]: ≥ 64 µg/mL
Compound: CCn1cc(C(=O)O)c(=O)c2ccc(/N=N\c3ccc(OC)c(C)c3)cc21

half-life at 30 µM [6]: 24 days
Compound: CCN(Cc1ccccc1)c1ccc(/N=N/c2ccc(NC(=O)C[N+](CC)(CC)CC)cc2)cc1 [KIO-301]
